Test results reported in ChEMBL document CHEMBL5550106, “Recent advances in the exploration of oxazolidinone scaffolds from compound development to antibacterial agents and other bioactivities” (Eur J Med Chem, 2024).
Values after ≈ are worked out from the molar mass of the structure shown.

Tested on: Mycobacterium tuberculosis
Assay: Antitubercular activity against Multi-drug resistant Mycobacterium tuberculosis assessed as inhibition of bacterial growth incubated for 14 days by microplate alamar blue assay
Assay type: functional
Conditions: 336 h, time 14 day

With `CN1CCN(c2ccc(N3C[C@H](CO)OC3=O)cc2F)C=N1` [DELPAZOLID] the MIC90 was 0.5 µg/mL (≈ 1.62 µM).
